Source: the supplement of paper PMC9663587

Assays:
SHP099 = compound: CC1(CCN(CC1)C2=CN=C(C(=N2)N)C3=C(C(=CC=C3)Cl)Cl)N [SHP099]
Vorinostat = compound: O=C(CCCCCCC(=O)Nc1ccccc1)NO [Vorinostat]
[1] = compound: CCN1CCN(Cc2ccc(Nc3ncc(F)c(-c4cc(F)c5nc(C)n(C(C)C)c5c4)n3)nc2)CC1
[2] = compound: CCc1cnn2c(NCc3ccc[n+]([O-])c3)cc(N3CCCC[C@H]3CCO)nc12
Paclitaxel = compound: CC(=O)O[C@H]1C(=O)[C@@]2(C)[C@H]([C@H](OC(=O)c3ccccc3)[C@]3(O)C[C@H](OC(=O)[C@H](O)[C@@H](NC(=O)c4ccccc4)c4ccccc4)C(C)=C1C3(C)C)[C@]1(OC(C)=O)CO[C@@H]1C[C@@H]2O [Paclitaxel]
BSJ-03-123 = compound: CC(=O)c1c(C)c2cnc(Nc3ccc(N4CCN(CCOCCOCCOCCNC(=O)COc5cccc6c5C(=O)N(C5CCC(=O)NC5=O)C6=O)CC4)cn3)nc2n(C2CCCC2)c1=O [BSJ-03-123]
Buparlisib/NVP-BKM120 = compound: Nc1cc(C(F)(F)F)c(-c2cc(N3CCOCC3)nc(N3CCOCC3)n2)cn1 [Buparlisib/NVP-BKM120]
AZD5363 = compound: NC1(C(=O)N[C@@H](CCO)c2ccc(Cl)cc2)CCN(c2nc[nH]c3nccc2-3)CC1 [AZD5363]
Cabozantinib = compound: COc1cc2nccc(Oc3ccc(NC(=O)C4(C(=O)Nc5ccc(F)cc5)CC4)cc3)c2cc1OC [Cabozantinib]
[3] = compound: CC(=O)c1c(C)c2cnc(Nc3ccc(N4CCNCC4)cn3)nc2n(C2CCCC2)c1=O; assay: GR value, 72 h; higher = faster growth (1 = untreated, <0 = killing);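 further: breast cancer and non-malignant breast epithelial lines, nine half-log doses, viable cells counted by Hoechst and LIVE/DEAD dye imaging versus time-zero plates and DMSO controls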
Flavopiridol = compound: CN1CC[C@H](c2c(O)cc(O)c3c(=O)cc(-c4ccccc4Cl)oc23)[C@H](O)C1 [Flavopiridol]; assay: as above
[4] = compound: CCN1CCN(Cc2ccc(Nc3ncc(F)c(-c4cc(F)c5nc(C)n(C(C)C)c5c4)n3)nc2)CC1; assay: as above
THZ531 = compound: CN(C)C/C=C/C(=O)Nc1ccc(C(=O)N2CCC[C@@H](Nc3ncc(Cl)c(-c4c[nH]c5ccccc45)n3)C2)cc1 [THZ531]; assay: as above
YKL-5-124 = compound: C=CC(=O)Nc1ccc(C(=O)Nc2[nH]nc3c2CN(C(=O)N[C@H](CN(C)C)c2ccccc2)C3(C)C)cc1 [YKL-5-124]; assay: as above
THZ1 = compound: CN(C)C/C=C/C(=O)Nc1ccc(C(=O)Nc2cccc(Nc3ncc(Cl)c(-c4c[nH]c5ccccc45)n3)c2)cc1 [THZ1]; assay: as above
[5] = compound: CCc1cnn2c(NCc3ccc[n+]([O-])c3)cc(N3CCCC[C@H]3CCO)nc12; assay: as above
LEE011/Ribociclib = compound: CN(C)C(=O)c1cc2cnc(Nc3ccc(N4CCNCC4)cn3)nc2n1C1CCCC1 [LEE011/Ribociclib]; assay: as above
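Wherever GR50, 72 h is given: breast cancer and non-malignant breast epithelial cell lines, Deep Dye Drop or Dye Drop imaging, nine half-log doses, GR normalized to time-zero plates and DMSO-only controls.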

MDAMB468
GR50, 72 h (SHP099): > 10 µM | GR50, 72 h (Vorinostat): 1.57 µM | GR50, 72 h [1]: 2.34 µM | GR50, 72 h [2]: 0.0156 µM | GR50, 72 h (Paclitaxel): 0.00135 µM | GR50, 72 h (BSJ-03-123): 1.71 µM | GR50, 72 h (Buparlisib/NVP-BKM120): 0.832 µM | GR50, 72 h (AZD5363): > 10 µM | GR50, 72 h (Cabozantinib): 8.97 µM | GR value ([3]; 0.0003162 µM): 0.963 GR | GR value ([3]; 0.001 µM): 1.02 GR | GR value ([3]; 0.003162 µM): 1.02 GR | GR value ([3]; 0.01 µM): 1.05 GR | GR value ([3]; 0.03162 µM): 1.02 GR | GR value ([3]; 0.1 µM): 1.01 GR | GR value ([3]; 0.3162 µM): 1.06 GR | GR value ([3]; 1 µM): 1.05 GR | GR value ([3]; 3.162 µM): 1.05 GR | GR value (Flavopiridol; 0.0001 µM): 0.989 GR | GR value (Flavopiridol; 0.0003162 µM): 0.962 GR | GR value (Flavopiridol; 0.001 µM): 0.929 GR | GR value (Flavopiridol; 0.003162 µM): 0.953 GR | GR value (Flavopiridol; 0.01 µM): 0.931 GR | GR value (Flavopiridol; 0.03162 µM): 0.898 GR | GR value (Flavopiridol; 0.1 µM): 0.662 GR | GR value (Flavopiridol; 0.3162 µM): 0.213 GR | GR value (Flavopiridol; 1 µM): -0.426 GR | GR value ([4]; 0.001 µM): 0.94 GR | GR value ([4]; 0.003162 µM): 0.966 GR | GR value ([4]; 0.01 µM): 0.979 GR | GR value ([4]; 0.03162 µM): 1.04 GR | GR value ([4]; 0.1 µM): 1.06 GR | GR value ([4]; 0.3162 µM): 1.01 GR | GR value ([4]; 1 µM): 0.811 GR | GR value ([4]; 3.162 µM): 0.321 GR | GR value ([4]; 10 µM): -0.34 GR | GR value (THZ531; 0.0001 µM): 1.02 GR | GR value (THZ531; 0.0003162 µM): 1 GR | GR value (THZ531; 0.001 µM): 0.926 GR | GR value (THZ531; 0.003162 µM): 1.04 GR | GR value (THZ531; 0.01 µM): 0.906 GR | GR value (THZ531; 0.03162 µM): 0.636 GR | GR value (THZ531; 0.1 µM): 0.082 GR | GR value (THZ531; 0.3162 µM): -0.19 GR | GR value (THZ531; 1 µM): -0.188 GR | GR value (YKL-5-124; 0.001 µM): 0.23 GR | GR value (YKL-5-124; 0.003162 µM): 0.077 GR | GR value (YKL-5-124; 0.01 µM): 0 GR | GR value (YKL-5-124; 0.03162 µM): -0.101 GR | GR value (YKL-5-124; 0.1 µM): -0.149 GR | GR value (YKL-5-124; 0.3162 µM): -0.177 GR | GR value (YKL-5-124; 1 µM): -0.217 GR | GR value (YKL-5-124; 3.162 µM): -0.309 GR | GR value (YKL-5-124; 10 µM): -0.549 GR | GR value (THZ1; 0.0001 µM): 1 GR | GR value (THZ1; 0.0003162 µM): 1.07 GR | GR value (THZ1; 0.001 µM): 1 GR | GR value (THZ1; 0.003162 µM): 0.92 GR | GR value (THZ1; 0.01 µM): 0.76 GR | GR value (THZ1; 0.03162 µM): 0.375 GR | GR value (THZ1; 0.1 µM): -0.131 GR | GR value (THZ1; 0.3162 µM): -0.226 GR | GR value (THZ1; 1 µM): -0.435 GR | GR value ([5]; 0.0001 µM): 0.988 GR | GR value ([5]; 0.0003162 µM): 1.01 GR | GR value ([5]; 0.001 µM): 0.985 GR | GR value ([5]; 0.003162 µM): 1.03 GR | GR value ([5]; 0.01 µM): 0.863 GR | GR value ([5]; 0.03162 µM): -0.106 GR | GR value ([5]; 0.1 µM): -0.255 GR | GR value ([5]; 0.3162 µM): -0.339 GR | GR value ([5]; 1 µM): -0.412 GR | GR value (LEE011/Ribociclib; 0.001 µM): 0.985 GR | GR value (LEE011/Ribociclib; 0.003162 µM): 1.04 GR | GR value (LEE011/Ribociclib; 0.01 µM): 0.951 GR | GR value (LEE011/Ribociclib; 0.03162 µM): 1.01 GR | GR value (LEE011/Ribociclib; 0.1 µM): 1.05 GR | GR value (LEE011/Ribociclib; 0.3162 µM): 0.965 GR | GR value (LEE011/Ribociclib; 1 µM): 0.935 GR | GR value (LEE011/Ribociclib; 3.162 µM): 1 GR | GR value (LEE011/Ribociclib; 10 µM): 1.02 GR
